According to patent US9630977B2, “Cephalosporin derivatives and pharmaceutical compositions thereof” (Legochem Biosciences, Inc., priority 2011, dated 2017):
In brackets after ≈: the same amount, converted by molar mass.

The compounds below were run on A. baumannii 46 (assay: In vitro antibacterial activity test (broth microdilution)). Conditions: Acinetobacter baumannii, 46, A. baumannii 46.
Format: cell-based
Description: (§1) To evaluate antibacterial activity of each of the compounds of Examples 1 to 68, in vitro antibacterial activity test was performed.
(§2) The in vitro antibacterial activity was evaluated by measuring MIC90 (ug/mL) of each of the compounds of Examples 1 to 68, which is defined as the lowest concentration of an antibiotic that will inhibit the visible growth of 90% of microorganisms after incubation as compared with a control group to which the antibiotic is not treated. MIC90 values were measured by the broth microdilution method developed by the Clinical and Laboratory Standards Institute (CLSI) (see CLSI M7-A5, Methods for Dilution Antimicrobial Susceptibility Test for Bacteria that Grow Aerobically-Fifth Edition (2000): CLSI, Villanova, Pa.).
(§3) In vitro antibacterial activity was measured with respect to the following 19 clinical isolates: M. catarrhalis; P. aeruginosa (5 strains); K. pneumoniae (6 strains); A. baumannii (3 strains); E. coli (2 strains); A. calcoaceticus; and E. cloacae.
(§4) Test compounds each (the cephalosporin derivative compounds prepared in Examples 1 to 68) were dissolved in DMSO at the concentration of 10,240 ug/mL, were diluted by two fold with DMSO, and then were diluted by twenty fold with sterilized distilled water. The final concentration in the antibacterial activity test was in the range of […] to 128 ug/mL, and the final concentration of DMSO used as an adjuvant was 2.5% (V/V).
In the case of `CC(C)(O/N=C(\C(=O)N[C@@H]1C(=O)N2C(C(=O)[O-])=C(/C=C/C[n+]3cnc(N)c(NC(=O)CCN)c3)CSC12)c1nsc(N)n1)C(=O)O` (stereo partly shown) [Compound 61], the MIC90 is reported as 128 µg/mL (≈ 189 µM).

What follows are compounds tested on A. baumannii 49 in the same assay as above. Conditions: Acinetobacter baumannii, 49, A. baumannii 49.
Format: cell-based
Description: as §1, §2, §3, §4
For `CC(C)(O/N=C(\C(=O)N[C@@H]1C(=O)N2C(C(=O)[O-])=C(/C=C/C[n+]3cnc(N)c(NC(=O)CCN)c3)CSC12)c1nsc(N)n1)C(=O)O` (stereo partly shown) [Compound 61], the MIC90 was 128 µg/mL (≈ 189 µM).

These compounds were tested on A. baumannii 52 in the same assay as above. Conditions: Acinetobacter baumannii, 52.
Format: cell-based
Description: as §1, §2, §3, §4
`CC(C)(O/N=C(\C(=O)N[C@@H]1C(=O)N2C(C(=O)[O-])=C(/C=C/C[n+]3cnc(N)c(NC(=O)CCN)c3)CSC12)c1nsc(N)n1)C(=O)O` (stereo partly shown) [Compound 61] was tested, and the MIC90 was 128 µg/mL (≈ 189 µM).

The compounds below were run on A. calcoaceticus ATCC15473 in the same assay as above. Conditions: Acinetobacter calcoaceticus, ATCC15473, A. calcoaceticus ATCC15473.
Format: cell-based
Description: as §1, §2, §3, §4
`CC(C)(O/N=C(\C(=O)N[C@@H]1C(=O)N2C(C(=O)[O-])=C(/C=C/C[n+]3cnc(N)c(NC(=O)CCN)c3)CSC12)c1nsc(N)n1)C(=O)O` (stereo partly shown) [Compound 61] showed an MIC90 of 1 µg/mL (≈ 1.48 µM).

What follows are compounds tested on E. cloacae β19 in the same assay as above. Conditions: Enterobacter cloacae.
Format: cell-based
Description: as §1, §2, §3, §4
Work on `CC(C)(O/N=C(\C(=O)N[C@@H]1C(=O)N2C(C(=O)[O-])=C(/C=C/C[n+]3cnc(N)c(NC(=O)CCN)c3)CSC12)c1nsc(N)n1)C(=O)O` (stereo partly shown) [Compound 61] yielded an MIC90 of 16 µg/mL (≈ 23.7 µM).

The compounds below were run on E. coli AG100 in the same assay as above. Conditions: Escherichia coli, AG100.
Format: cell-based
Description: as §1, §2, §3, §4
`CC(C)(O/N=C(\C(=O)N[C@@H]1C(=O)N2C(C(=O)[O-])=C(/C=C/C[n+]3cnc(N)c(NC(=O)CCN)c3)CSC12)c1nsc(N)n1)C(=O)O` (stereo partly shown) [Compound 61] was tested, and the MIC90 was 0.125 µg/mL (≈ 0.185 µM).

These compounds were tested on E. coli β4 in the same assay as above. Conditions: Escherichia coli.
Format: cell-based
Description: as §1, §2, §3, §4
For `CC(C)(O/N=C(\C(=O)N[C@@H]1C(=O)N2C(C(=O)[O-])=C(/C=C/C[n+]3cnc(N)c(NC(=O)CCN)c3)CSC12)c1nsc(N)n1)C(=O)O` (stereo partly shown) [Compound 61], the MIC90 was 0.125 µg/mL (≈ 0.185 µM).

The compounds below were run on K. pneumoniae 2011E in the same assay as above. Conditions: Klebsiella pneumoniae, 2011E.
Format: cell-based
Description: as §1, §2, §3, §4
In the case of `CC(C)(O/N=C(\C(=O)N[C@@H]1C(=O)N2C(C(=O)[O-])=C(/C=C/C[n+]3cnc(N)c(NC(=O)CCN)c3)CSC12)c1nsc(N)n1)C(=O)O` (stereo partly shown) [Compound 61], the MIC90 is reported as 0.25 µg/mL (≈ 0.37 µM).

Each compound was assayed on K. pneumoniae β10 in the same assay as above. Conditions: Klebsiella pneumoniae.
Format: cell-based
Description: as §1, §2, §3, §4
For `CC(C)(O/N=C(\C(=O)N[C@@H]1C(=O)N2C(C(=O)[O-])=C(/C=C/C[n+]3cnc(N)c(NC(=O)CCN)c3)CSC12)c1nsc(N)n1)C(=O)O` (stereo partly shown) [Compound 61], the MIC90 was 1 µg/mL (≈ 1.48 µM).

Each compound was assayed on K. pneumoniae β11 in the same assay as above. Conditions: Klebsiella pneumoniae.
Format: cell-based
Description: as §1, §2, §3, §4
For `CC(C)(O/N=C(\C(=O)N[C@@H]1C(=O)N2C(C(=O)[O-])=C(/C=C/C[n+]3cnc(N)c(NC(=O)CCN)c3)CSC12)c1nsc(N)n1)C(=O)O` (stereo partly shown) [Compound 61], the MIC90 was > 128 µg/mL.

The compounds below were run on K. pneumoniae β13 in the same assay as above. Conditions: Klebsiella pneumoniae.
Format: cell-based
Description: as §1, §2, §3, §4
`CC(C)(O/N=C(\C(=O)N[C@@H]1C(=O)N2C(C(=O)[O-])=C(/C=C/C[n+]3cnc(N)c(NC(=O)CCN)c3)CSC12)c1nsc(N)n1)C(=O)O` (stereo partly shown) [Compound 61] gave an MIC90 of 2 µg/mL (≈ 2.96 µM).

Each compound was assayed on K. pneumoniae β14 in the same assay as above. Conditions: Klebsiella pneumoniae.
Format: cell-based
Description: as §1, §2, §3, §4
`CC(C)(O/N=C(\C(=O)N[C@@H]1C(=O)N2C(C(=O)[O-])=C(/C=C/C[n+]3cnc(N)c(NC(=O)CCN)c3)CSC12)c1nsc(N)n1)C(=O)O` (stereo partly shown) [Compound 61] showed an MIC90 of 4 µg/mL (≈ 5.92 µM).

What follows are compounds tested on K. pneumoniae β9 in the same assay as above. Conditions: Klebsiella pneumoniae.
Format: cell-based
Description: as §1, §2, §3, §4
In the case of `CC(C)(O/N=C(\C(=O)N[C@@H]1C(=O)N2C(C(=O)[O-])=C(/C=C/C[n+]3cnc(N)c(NC(=O)CCN)c3)CSC12)c1nsc(N)n1)C(=O)O` (stereo partly shown) [Compound 61], the MIC90 is reported as 16 µg/mL (≈ 23.7 µM).

Each compound was assayed on M. catarrhalis 2524 in the same assay as above. Conditions: Moraxella catarrhalis, 2524.
Format: cell-based
Description: as §1, §2, §3, §4
`CC(C)(O/N=C(\C(=O)N[C@@H]1C(=O)N2C(C(=O)[O-])=C(/C=C/C[n+]3cnc(N)c(NC(=O)CCN)c3)CSC12)c1nsc(N)n1)C(=O)O` (stereo partly shown) [Compound 61] was tested, and the MIC90 was < 0.0625 µg/mL.

Each compound was assayed on P. aeruginosa 1912E in the same assay as above. Conditions: Pseudomonas aeruginosa, 1912E.
Format: cell-based
Description: as §1, §2, §3, §4
With `CC(C)(O/N=C(\C(=O)N[C@@H]1C(=O)N2C(C(=O)[O-])=C(/C=C/C[n+]3cnc(N)c(NC(=O)CCN)c3)CSC12)c1nsc(N)n1)C(=O)O` (stereo partly shown) [Compound 61] the MIC90 was 2 µg/mL (≈ 2.96 µM).

What follows are compounds tested on P. aeruginosa 37 in the same assay as above. Conditions: Pseudomonas aeruginosa, 37, P. aeruginosa 37.
Format: cell-based
Description: as §1, §2, §3, §4
In the case of `CC(C)(O/N=C(\C(=O)N[C@@H]1C(=O)N2C(C(=O)[O-])=C(/C=C/C[n+]3cnc(N)c(NC(=O)CCN)c3)CSC12)c1nsc(N)n1)C(=O)O` (stereo partly shown) [Compound 61], the MIC90 is reported as 32 µg/mL (≈ 47.4 µM).

What follows are compounds tested on P. aeruginosa 40 in the same assay as above. Conditions: Pseudomonas aeruginosa, 40.
Format: cell-based
Description: as §1, §2, §3, §4
Work on `CC(C)(O/N=C(\C(=O)N[C@@H]1C(=O)N2C(C(=O)[O-])=C(/C=C/C[n+]3cnc(N)c(NC(=O)CCN)c3)CSC12)c1nsc(N)n1)C(=O)O` (stereo partly shown) [Compound 61] yielded an MIC90 of 2 µg/mL (≈ 2.96 µM).

These compounds were tested on P. aeruginosa 43 in the same assay as above. Conditions: Pseudomonas aeruginosa, 43.
Format: cell-based
Description: as §1, §2, §3, §4
With `CC(C)(O/N=C(\C(=O)N[C@@H]1C(=O)N2C(C(=O)[O-])=C(/C=C/C[n+]3cnc(N)c(NC(=O)CCN)c3)CSC12)c1nsc(N)n1)C(=O)O` (stereo partly shown) [Compound 61] the MIC90 was > 128 µg/mL.

What follows are compounds tested on P. aeruginosa 6065Y in the same assay as above. Conditions: Pseudomonas aeruginosa, 6065Y.
Format: cell-based
Description: as §1, §2, §3, §4
In the case of `CC(C)(O/N=C(\C(=O)N[C@@H]1C(=O)N2C(C(=O)[O-])=C(/C=C/C[n+]3cnc(N)c(NC(=O)CCN)c3)CSC12)c1nsc(N)n1)C(=O)O` (stereo partly shown) [Compound 61], the MIC90 is reported as 32 µg/mL (≈ 47.4 µM).
